PMC6413952, “Discovery of ABBV-4083, a novel analog of Tylosin A that has potent anti-Wolbachia and anti-filarial activity” (PLoS Neglected Tropical Diseases, 2019)

Columns and labels:
[1] = system: Wolbachia pipientis in Aedes albopictus C6/36 (wAlbB) insect cells; assay: A·WOL Wolbachia-infected Aedes albopictus (C6/36 wAlbB) 7-day cell-based assay, high content imaging; settings: for activity against Wolbachia: commercially available 16-membered macrolides
Description: Compounds were screened for anti-Wolbachia activity in vitro in the A·WOL-validated Wolbachia-infected Aedes albopictus (C6/36 wAlbB) 7-day cell-based assay which utilizes a 384-well format assay with high content imaging (HCI) (Operetta) as described previously.
We began our work by selecting a diverse and representative sample of the AbbVie antibiotics collection (129 compounds) for single-point testing against Wolbachia pipientis in an insect cell line. […] While TylA has a long history of use in multiple animal species, it has never been studied in humans; and its activity against Wolbachia has not previously been reported.

[2] = Rat oral pharmacokinetic study (plasma AUC, C8hr); type: in vivo, Sprague-Dawley rats; settings: for C*8hr / C*8hr/ EC50 / AUC*/EC50: PO rats; for AUC* parent / AUC* TylA (metabolite): PO, Sprague-Dawley rats; for C*8hr/ EC50: potency-weighted 8-hr drug level; for AUC*/EC50: potency-weighted AUC; for AUC* TylA (metabolite): primary metabolite TylA; for improvement in plasma drug levels (AUC) over TylA / drug levels relative to 2'-OH partners 5c and 5d: rats
Method: PO doses were administrated by oral gavage, IP doses by intraperitoneal injection to BALB/c mice or Sprague-Dawley rats (Charles River Laboratories, USA). Serial blood samples collected into EDTA anticoagulant for plasma concentration analysis were obtained from each animal after dosing. EDTA preserved plasma samples were extracted by protein precipitation with acetonitrile fortified with internal standards. The supernatant was injected into an HPLC-MS/MS system for separation and quantitation. Detection was accomplished using a triple quadrupole mass spectrometer operated either in electrospray or atmospheric chemical ionization (APCI) mode. The area under the plasma concentration-time curve (AUC) was calculated using the linear trapezoidal rule.

[3] = Mouse pharmacokinetic study (plasma levels, IP or PO); type: in vivo, BALB/c mice
Method: PO doses were administrated by oral gavage, IP doses by intraperitoneal injection to BALB/c mice or Sprague-Dawley rats (Charles River Laboratories, USA). Serial blood samples collected into EDTA anticoagulant for plasma concentration analysis were obtained from each animal after dosing. EDTA preserved plasma samples were extracted by protein precipitation with acetonitrile fortified with internal standards. The supernatant was injected into an HPLC-MS/MS system for separation and quantitation. Detection was accomplished using a triple quadrupole mass spectrometer operated either in electrospray or atmospheric chemical ionization (APCI) mode. The area under the plasma concentration-time curve (AUC) was calculated using the linear trapezoidal rule. […] Plasma levels of TylA in BALB/c mice following IP or PO dosing (100 mg/kg).

MDR-MDCK monolayer = type: in vitro ADME, canine; settings: MDCK-MDR1
Description: Drug levels in the IP arm of this study were >30-fold higher than those achieved when the drug is given PO. […] Therefore, improving drug absorption by increasing permeability became a primary goal for our lead-optimization studies.

Litomosoides sigmodontis = Litomosoides sigmodontis larval mouse model (worm length); type: in vivo, BALB/c mice; settings: 35 days post-infection
Method: As described previously, female BALB/c mice or female jirds were infected at 6–8 weeks of age with L. sigmodontis larvae through the bites of Ornithonyssus bacoti mites. […] One day post infection, mice were dosed IP or PO with TylA (Sigma Aldrich, 200 mg/kg BID x 7 days), doxycycline hyclate (Sigma-Aldrich, 200 mg/kg BID x 14 days), or vehicle using a volume of 10 ml/kg. At 35 days post-infection mice were euthanized using an overdose of isoflurane; worms were recovered from the pleural cavity by pleural lavage, counted, sexed and staged for development into L4 and adult worms based on the difference of the buccal capsule through microscopic examination. Female worms were measured for length (mm) as a marker for development as previously described. Data were distributed in a non-parametric fashion, median and interquartile ranges are presented. For comparing the length of the female worms, the Mann-Whitney-U test was used to calculate statistical differences either against the vehicle treated or gold standard groups.

Molecule: CC[C@H]1OC(=O)C[C@@H](O)[C@H](C)[C@@H](O[C@@H]2O[C@H](C)[C@@H](O[C@H]3C[C@@](C)(O)[C@@H](O)[C@H](C)O3)[C@H](N(C)C)[C@H]2O)[C@@H](CC=O)C[C@@H](C)C(=O)/C=C/C(C)=C/[C@@H]1CO[C@@H]1O[C@H](C)[C@@H](O)[C@@H](OC)[C@H]1OC [1 (TylA), Tylosin A]
- EC50 ([1]; C6/36, Wolbachia-infected insect cells, geometric mean (N), each N a duplicate measurement): 28 nM
- C*8hr [2]: 0.5 ng/mL per mg/kg
- AUC* parent [2]: 9.6 ng-hr/ml per mg/kg
- C*8hr/ EC50 [2]: 0.02 ng/ml/nM per mg/kg
- AUC*/EC50 [2]: 0.34 ng-hr/ml/nM per mg/kg
- drug levels IP arm relative to PO ([3]; BALB/c mice, 100 mg/kg IP or PO): > 30 fold
- permeability (MDR-MDCK monolayer): < 0.1X10^-6 cm/sec
- length of recovered worms (Litomosoides sigmodontis; 200 mg/kg IP BID x 7 days): notably shorter than controls
- length of recovered worms (Litomosoides sigmodontis; 200 mg/kg PO BID x 7 days): minimal response

Molecule: CCCCC(=O)OC1C(OC2C(CC=O)CC(C)C(=O)C=CC(C)=CC(COC3OC(C)C(O)C(OC)C3OC)C(CC)OC(=O)CC(O)C2C)OC(C)C(OC2CC(C)(O)C(O)C(C)O2)C1N(C)C (stereo not shown) [Compound 2c]
- C*8hr [2]: 2.5 ng/mL per mg/kg
- AUC* parent [2]: 58 ng-hr/ml per mg/kg
- AUC* TylA (metabolite) [2]: 1.2 ng-hr/ml per mg/kg
- potency-weighted 8-hr drug level (C8hr/dose/EC50) relative to TylA ([2]; oral dosing): doubles
- potency-weighted AUC (AUC*/EC50) relative to TylA ([2]; oral dosing): ~ 2.6 fold
- improvement in plasma drug levels (AUC) over TylA ([2]; oral dosing): 6 fold
- metabolic stability of substituent / species observed in plasma ([2]; oral pharmacokinetic study): relatively metabolically stable
- C*8hr/ EC50 [2]: 0.04 ng/ml/nM per mg/kg
- AUC*/EC50 [2]: 0.89 ng-hr/ml/nM per mg/kg

Molecule: CCC1OC(=O)CC(O)C(C)C(OC2OC(C)C(OC3CC(C)(O)C(OC(=O)N(CC)CC)C(C)O3)C(N(C)C)C2OC(=O)C(C)C)C(CC=O)CC(C)C(=O)C=CC(C)=CC1COC1OC(C)C(O)C(OC)C1OC (stereo not shown) [Compound 4d]
- C*8hr [2]: 30 ng/mL per mg/kg
- AUC* parent [2]: 420 ng-hr/ml per mg/kg
- AUC* TylA (metabolite) [2]: 1.4 ng-hr/ml per mg/kg
- drug levels relative to 2'-OH partners 5c and 5d ([2]; oral dosing): more than 10 fold
- improvement in plasma drug levels (AUC) over TylA ([2]; oral dosing): 40–50 fold
- C*8hr/ EC50 [2]: 1.25 ng/ml/nM per mg/kg
- AUC*/EC50 [2]: 17.5 ng-hr/ml/nM per mg/kg

Molecule: CC[C@H]1OC(=O)C[C@@H](O)[C@H](C)[C@@H](O[C@@H]2O[C@H](C)[C@@H](O[C@H]3C[C@@](C)(O)[C@@H](OCc4ccc(F)cc4)[C@H](C)O3)[C@H](N(C)C)[C@H]2OC(=O)C(C)C)[C@@H](CC=O)C[C@@H](C)C(=O)/C=C/C(C)=C/[C@@H]1CO[C@@H]1O[C@H](C)[C@@H](O)[C@@H](OC)[C@H]1OC [Compound 4e]
- C*8hr [2]: 30 ng/mL per mg/kg
- AUC* parent [2]: 510 ng-hr/ml per mg/kg
- AUC* TylA (metabolite) [2]: <0.6 ng-hr/ml per mg/kg
- drug levels relative to 2'-OH partners 5c and 5d ([2]; oral dosing): more than 10 fold
- improvement in plasma drug levels (AUC) over TylA ([2]; oral dosing): 40–50 fold
- C*8hr/ EC50 [2]: 1.03 ng/ml/nM per mg/kg
- AUC*/EC50 [2]: 17.6 ng-hr/ml/nM per mg/kg

Molecule: CCCCC(=O)OC1C(C)OC(OC2C(C)OC(OC3C(CC=O)CC(C)C(=O)C=CC(C)=CC(COC4OC(C)C(O)C(OC)C4OC)C(CC)OC(=O)CC(O)C3C)C(O)C2N(C)C)CC1(C)O (stereo not shown) [Compound 5a]
- potency improvement (EC50) over TylA ([1]; EC50 lower than parent TylA): 25 fold
- AUC* parent [2]: <0.6 ng-hr/ml per mg/kg
- AUC* TylA (metabolite) [2]: 30 ng-hr/ml per mg/kg
- parent ester in plasma ([3]; mice, oral, any time point): no sign of parent is observed
- increase in oral drug levels upon 4"-acylation ([3]; mice, measured drug is deacylated metabolite TylA): ~ 3 fold

Molecule: CCC1OC(=O)CC(O)C(C)C(OC2OC(C)C(OC3CC(C)(O)C(OC(=O)C(C)(C)C)C(C)O3)C(N(C)C)C2O)C(CC=O)CC(C)C(=O)C=CC(C)=CC1COC1OC(C)C(O)C(OC)C1OC (stereo not shown) [Compound 5b]
- C*8hr [2]: 3.0 ng/mL per mg/kg
- AUC* parent [2]: 58 ng-hr/ml per mg/kg
- AUC* TylA (metabolite) [2]: <0.6 ng-hr/ml per mg/kg
- potency-weighted AUC (AUC*/EC50) relative to TylA ([2]; oral dosing): 30 fold
- improvement in plasma drug levels (AUC) over TylA ([2]; oral dosing): 6 fold
- C*8hr/ EC50 [2]: 0.56 ng/ml/nM per mg/kg
- AUC*/EC50 [2]: 10.7 ng-hr/ml/nM per mg/kg
- deacylated product TylA as share of total circulating drug ([2]; rat pharmacokinetic study, oral): < 1%

Molecule: CO[C@@H]1[C@@H](O[C@@H]2O[C@H](C)[C@@H](O[C@H]3C[C@@](C)(O)[C@@H](OC(=O)CC(C)C)[C@H](C)O3)[C@H](N(C)C)[C@H]2O)[C@@H](CC=O)C[C@@H](C)[C@@H](O)/C=C/C=C/C[C@@H](C)OC(=O)C[C@H]1O [leucomycin]
- activity against Wolbachia [1]: inactive

Molecule: CCC(=O)O[C@@H]1CC(=O)O[C@H](C)C/C=C/C=C/[C@H](O)[C@H](C)C[C@H](CC=O)[C@H](O[C@@H]2O[C@H](C)[C@@H](O[C@H]3C[C@@](C)(O)[C@@H](OC(=O)CC)[C@H](C)O3)[C@H](N(C)C)[C@H]2O)[C@H]1OC [midecamycin]
- activity against Wolbachia [1]: inactive

Molecule: josmycin
- activity against Wolbachia [1]: inactive

Molecule: spiramycin
- activity against Wolbachia [1]: inactive
